{"source": "patent US20240252514A1", "about": "“NEUROACTIVE STEROID FOR THE TREATMENT OF MILD COGNITIVE IMPAIRMENT ASSOCIATED WITH PARKINSON'S DISEASE” (SAGE THERAPEUTICS, INC., priority 2021, published 2024)", "assay_type_in_all_cases": "in vivo, human", "key": {"[1]": {"tested_on": "patients suffering from Mild Cognitive Impairment due to Parkinson's Disease (PD-MCI)", "experiment": "Tests of Learning and Memory (PAL, PRM, Verbal Recognition Memory, Spatial Span), open label study", "procedure": "(§1) The safety and tolerability of Compound 1 and its effects on cognitive, neuropsychiatric, and motor symptoms in patients suffering from Mild Cognitive Impairment due to Parkinson's Disease (PD-MCI) was evaluated in an open label study. Eligible participants with a confirmed diagnosis of idiopathic PD by 2015 Movement Disorder Society (MDS) criteria (Berardelli et al., EFNS/MDS-ES/ENS recommendations for the diagnosis of Parkinson's disease. Eur J Neurol. 2013; 20:16-34) at Screening and who met MDS Task Force Criteria for MCI in PD (excluding requirement for UK PD Brain Bank diagnostic criteria) received 3.0 mg of Compound 1 (oral dose) daily for 14 days. Participants were instructed to take the daily dose of Compound 1 in the morning within 1 hour of initiating a meal containing approximately 30 g of fat. The study protocol was as follows and is depicted in FIG. 1.\n(§2) Beginning on Day 1 and continuing through Day 14, participants self-administered 3.0 mg Compound 1 (as six 0.5-mg oral tablets), once per day in the morning within 1 hour after initiating a meal containing approximately 30 g of fat, in accordance with the guidelines provided in a nutritional information brochure. Participants continued to complete daily assessments of cognitive performance and sleep via mobile device either remotely (at home), or in the clinic at scheduled visits and tracked Compound 1 dosing and predose food intake in a participant diary.\n(§3) Eight patients (male and female) aged 50 to 75 years old with mild cognitive impairment due to Parkinson's disease received 3 mg as oral tablets of Compound 1 daily for 2-weeks.\nThe tests of Learning and Memory included Paired Associates Learning (PAL), which assesses how well the subject remembers the location of hidden objects; Pattern Recognition Memory (PRM), which assesses how well the subject remembers a pattern; and Verbal Recognition Memory […], which assesses how well the subject stores and retrieves verbal information."}, "[2]": {"tested_on": "patients suffering from Mild Cognitive Impairment due to Parkinson's Disease (PD-MCI)", "experiment": "Tests of Attention and Psychomotor Performance (RTI, PVT), open label study", "procedure": "as §1, §2, §3\nThe tests of Attention and Psychomotor Performance included Reaction Time (RTI), which assesses how fast the subject can respond to a stimulus (weekly measure); Psychomotor Vigilance Task (PVT), which assesses how fast can the subject respond to a stimulus (daily measure)."}, "[3]": {"tested_on": "patients suffering from Mild Cognitive Impairment due to Parkinson's Disease (PD-MCI)", "experiment": "Safety and tolerability (adverse events), open label study", "details": "3 mg oral daily for 14 days, follow-up to Day 28", "procedure": "as §1\nAt scheduled visits during the Treatment Period, participants completed the mobile device tasks under staff supervision. At scheduled clinic visits during the Treatment Period, safety, efficacy, and PK procedures were performed. In addition to weekly clinic visits, study staff contacted participants by telephone on Day 4 to document any TEAEs and/or changes in concomitant medications.\nParticipants were contacted by telephone on Day 21 to document any AEs and/or changes in concomitant medications. Participants returned to the clinic on Day 28 (±2 days) for a follow-up visit.\nThe Primary objective of the study was to assess (1) the percentage of Participants With at Least One Treatment-Emergent Adverse Event (TEAE) (Time Frame: Up to Day 28)."}, "[4]": {"tested_on": "patients suffering from Mild Cognitive Impairment due to Parkinson's Disease (PD-MCI)", "experiment": "Tests of Executive Functioning (MTT, OTS, SWM, DSST, 2-Back), open label study", "procedure": "as §1, §2, §3\nThe tests of Executive Functioning included (1) Multitasking Test (MTT), which assesses how well the subject manages conflicting information; (2) One Touch Stockings of Cambridge (OTS), which assesses how well the subject plans, holds onto, and manipulates information to solve a puzzle; (3) Spatial Working Memory (SWM), which assesses how well the subject develops and uses a strategy to find hidden information; (4) Digit Symbol Substitution Task (DSST), which assesses how efficiently can the subject complete a demanding task (daily measure); and (5) Two-Back Test (NBX), which asks is the symbol the same as that shown two symbols ago."}, "[5]": {"tested_on": "patients suffering from Mild Cognitive Impairment due to Parkinson's Disease (PD-MCI)", "experiment": "Tests of Social Cognition (ERT, EBT), open label study", "details": "3 mg oral daily for 14 days, vs baseline, Clinic/Weekly", "procedure": "as §1\nBeginning on Day 1 and continuing through Day 14, participants self-administered 3.0 mg Compound 1 (as six 0.5-mg oral tablets), once per day in the morning within 1 hour after initiating a meal containing approximately 30 g of fat, in accordance with the guidelines provided in a nutritional information brochure. […]"}, "[6]": {"details": "3 mg oral daily for 14 days, vs baseline, Clinic/Weekly"}, "[7]": {"details": "PD-MCI patients, 3 mg oral daily for 14 days, vs baseline, Clinic/Weekly"}}, "note": "Entries after “also recorded” stand apart in the source; their conditions may differ.", "data": [{"smiles": "C[C@H](CC[C@](C)(O)C(F)(F)F)[C@H]1CC[C@H]2[C@@H]3CC=C4C[C@@](C)(O)CC[C@]4(C)[C@H]3CC[C@]12C", "note": "[Compound 1]", "values": [{"measurement": "Trend, Learning and Memory: Paired Associates", "setting": "[1]; [6]", "value": "Improvement"}, {"measurement": "Trend, Learning and Memory: Pattern recognition", "setting": "[1]; [6]", "value": "Improvement"}, {"measurement": "Trend, Learning and Memory: Spatial Span", "setting": "[1]; [6]", "value": "Neutral"}, {"measurement": "Trend, Learning and Memory: Verbal Memory", "setting": "[1]; [6]", "value": "Improvement"}, {"measurement": "Performance in the domains of learning and memory (overall)", "setting": "[1]; 3 mg oral daily, 14 days, vs baseline (FIGS. 4 and 5)", "value": "improved performance from baseline"}, {"measurement": "Trend, Attention & Psychomotor Speed: Reaction Time", "setting": "[2]; [6]", "value": "Neutral"}, {"measurement": "Trend, Attention & Psychomotor Speed: Psychomotor Vigilance", "setting": "[2]; 3 mg oral daily for 14 days, vs baseline, Mobile/Daily", "value": "Neutral"}, {"measurement": "Performance in tests of attention and psychomotor speed (overall)", "setting": "[2]; 3 mg oral daily, 14 days (FIG. 6)", "value": "neutral results; also recorded: no appreciable change"}, {"measurement": "Serious adverse events", "setting": "[3]", "value": "no serious adverse events"}, {"measurement": "Tolerability", "setting": "[3]", "value": "generally well tolerated"}, {"measurement": "Treatment emergent adverse events related to the compound", "setting": "[3]", "value": "no treatment emergent adverse events were determined to be related to Compound 1"}, {"measurement": "Trend, Executive Functioning: 2-Back", "setting": "[4]; [7]", "value": "Improvement"}, {"measurement": "Trend, Executive Functioning: Multitasking", "setting": "[4]; [7]", "value": "Improvement"}, {"measurement": "Trend, Executive Functioning: One Touch Stockings", "setting": "[4]; [7]", "value": "Improvement"}, {"measurement": "Trend, Executive Functioning: Spatial working Memory", "setting": "[4]; [7]", "value": "Improvement"}, {"measurement": "Trend, Executive Functioning: DSST", "setting": "[4]; PD-MCI patients, 3 mg oral daily for 14 days, vs baseline, Mobile/Daily", "value": "Improvement"}, {"measurement": "Performance in the cognitive domain of executive function (five tests, overall)", "setting": "[4]; PD-MCI patients, 3 mg oral daily, during 14 days of treatment, vs baseline (FIGS. 2-3)", "value": "performance improvements from baseline; also recorded: improved performance"}, {"measurement": "DSST improvement over baseline", "setting": "[4]; PD-MCI subjects, 3 mg oral daily, Treatment Day 14 (FIG. 3)", "value": "~27", "unit": "%"}, {"measurement": "Trend, Social Cognition: Emotional Bias", "setting": "[5]", "value": "Improvement"}, {"measurement": "Trend, Social Cognition: Emotional Recognition", "setting": "[5]", "value": "Neutral"}]}]}
